Where a name gives a salt, the structure may show the parent alone.
Molecular target: IRAK-4 (Homo sapiens (Human), UniProt Q9NWZ3)
Assay: In vitro IRAK-4 kinase assay
Assay type: biochemical
Conditions: purified recombinant IRAK-4, 50 uM ATP, 33P peptide phosphorylation
Protocol: Purified recombinant IRAK-4 protein was incubated with 250 uM synthetic peptide ([…]) in 30 ul of kinase buffer including (20 mM MOPS pH7.2, 25 mM beta glycerol phosphate, 5 mM EGTA, 1 mM sodium orthovanadate, 1 mM DTT, 50 uM ATP, 20 mM MgCl2, 10 uCi γ-^33P, 0.1% BSA) for the indicated time. For purified recombinant IRAK-1 protein kinase assay, 50 uM ATP was used. A 25 ul aliquot of the reaction mixture was transferred on to p81 phosphocellulose squares (Upstate Biotechnology, Lake Placid, N.Y.). The assay squares were washed three times with 0.75% phosphoric acid and once with acetone. Enzyme activity was measured by determining the bound radioactivity by liquid scintillation counting.

IRAK-4, sequence (Q9NWZ3 whole entry, species assumed): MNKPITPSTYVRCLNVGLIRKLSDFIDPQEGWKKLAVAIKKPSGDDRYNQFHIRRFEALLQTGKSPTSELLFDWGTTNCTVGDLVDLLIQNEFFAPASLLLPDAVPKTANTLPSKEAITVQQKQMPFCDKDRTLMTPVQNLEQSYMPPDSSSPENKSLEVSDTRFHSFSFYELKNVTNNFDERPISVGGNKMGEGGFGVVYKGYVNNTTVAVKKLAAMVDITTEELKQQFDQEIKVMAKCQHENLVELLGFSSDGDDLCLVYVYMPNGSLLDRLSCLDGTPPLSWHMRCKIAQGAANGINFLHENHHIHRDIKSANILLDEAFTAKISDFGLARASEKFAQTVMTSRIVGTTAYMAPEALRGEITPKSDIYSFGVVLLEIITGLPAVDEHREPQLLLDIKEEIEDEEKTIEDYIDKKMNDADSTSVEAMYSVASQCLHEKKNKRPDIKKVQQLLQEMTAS

Compound	IC50 [nM]
CC(C)COc1ccc(Cl)cc1NC(=O)c1cnn2cccnc12 [Example 135, Pyrazolo[1,5-alpha]pyrimidine-3-carboxylic acid (5-chloro-2-isobutoxy-phenyl)-amide]	2280
O=C1Cc2cc(N3CCCCC3)c(NC(=O)c3cnn4cccnc34)cc2N1 [Example 48, Pyrazolo[1,5-alpha]pyrimidine-3-carboxylic acid (2-oxo-5-piperidin-1-yl-2,3-dihydro-1H-indol-6-yl)-amide]	98
O=C(Nc1cc2cccnc2cc1OC1CCNCC1)c1cnn2cccnc12 [Example 32, Pyrazolo[1,5-alpha]pyrimidine-3-carboxylic acid [7-(piperidin-4-yloxy)-quinolin-6-yl]-amide hydrochloride]	40
O=C(Nc1cc(Cl)ccc1OCCCCO)c1cnn2cccnc12 [Example 87, Pyrazolo[1,5-alpha]pyrimidine-3-carboxylic acid [5-chloro-2-(4-hydroxy-butoxy)-phenyl]-amide]	437
O=C(Nc1cc2cccnc2cc1OCCCO)c1csc2cncnc12 [Example 58, Thieno[3,2-d]pyrimidine-7-carboxylic acid [7-(3-hydroxy-propoxy)-quinolin-6-yl]-amide]	131
O=C(Nc1cc(Cl)ccc1N1CCCCCC1)c1cnn2cccnc12 [Example 119, Pyrazolo[1,5-alpha]pyrimidine-3-carboxylic acid (2-azepan 1-yl-5-chloro-phenyl)-amide]	1500
COc1cc2ncccc2cc1NC(=O)c1csc2cnc(N(C)C(C)C)nc12 [Example 85, 2-(Isopropyl-methyl-amino)-thieno[3,2-d]pyrimidine-7-carboxylic acid (7-methoxy-quinolin-6-yl)-amide]	432

Second part, the compound after the results:

IC50 [nM]	Compound
2740	COc1cc(OC)c(NC(=O)c2cnn3cccnc23)cc1Cl [Example 142, Pyrazolo[1,5-alpha]pyrimidine-3-carboxylic acid (5-chloro-2,4-dimethoxy-phenyl)-amide]
81	NCc1ccc(-c2ccc(Cl)cc2NC(=O)c2cnn3cccnc23)cc1 [Example 46, Pyrazolo[1,{tildeover (5)}alpha] pyrimidine-3-carboxylic acid (4′-aminomethyl-4-chloro-biphenyl-2-yl)-amide]
5000	O=C(Nc1cc(Cl)ccc1OCCO)c1cnn2cccnc12 [Example 179, Pyrazolo[1,5-alpha]pyrimidine-3-carboxylic acid [5-chloro-2-(2-hydroxy-ethoxy)-phenyl]-amide]
8670	COc1cc(CO)ccc1NC(=O)c1cnn2cccnc12 [Example 177, Pyrazolo[1,5-alpha]pyrimidine-3-carboxylic acid (4-hydroxymethyl-2-methoxy-phenyl)-amide]
251	NC1CCN(c2ccc(Cl)cc2NC(=O)c2cnn3cccnc23)CC1 [Example 70, Pyrazolo[1,{tildeover (5)}-alpha] pyrimidine-3-carboxylic acid [2-(4-amino-piperidin-1-yl)-5-chloro-phenyl]-amide]
430	O=C(Nc1cc(Cl)ccc1OCCCO)c1cnn2cccnc12 [Example 84, Pyrazolo[1,5-alpha]pyrimidine-3-carboxylic acid [5-chloro-2-(3-hydroxy-propoxy)-phenyl]-amide]
1220	O=C(Nc1ccccc1-c1ccccc1)c1cnn2cccnc12 [Example 116, Pyrazolo[1,5-alpha]pyrimidine-3-carboxylic acid biphenyl-2-ylamide]
1630	COc1ccc(Cl)cc1NC(=O)c1cnn2cccnc12 [Example 123, Pyrazolo[1,5-alpha]pyrimidine-3-carboxylic acid (5-chloro-2-methoxy-phenyl)-amide]
476	O=C(Nc1cc(Cl)ccc1OC1CCNCC1)c1cnn2cccnc12 [Example 92, Pyrazolo[1,5-alpha]pyrimidine-3-carboxylic acid [5-chloro-2-(piperidin-4-yloxy)-phenyl]-amide hydrochloride]

From patent publication US9255110B2 (Hoffmann-La Roche Inc., priority 2010, dated 2016)
